Reference: article PMC9889419 (Pharmacological Reports, 2022)
Counter-ions that a name gives are not always drawn.

Columns and labels:
Assay in all cases: Radioligand binding
NK1 = biological target: T1, NK1 (Homo sapiens, UniProt P25103); settings: 100 μM
T1 construct: purchased Eurofins CEREP

CCK1 (CCKA) = biological target: T2, CCK1 (CCKA) (Homo sapiens, UniProt P32238); settings: 100 μM
T2 construct: purchased Eurofins CEREP

CB1 = biological target: T3, CB1 (Homo sapiens, UniProt P21554); settings: 100 μM
T3 construct: purchased Eurofins CEREP

MC4 = biological target: T4, MC4 (Homo sapiens, UniProt P32245); settings: 100 μM
T4 construct: purchased Eurofins CEREP

M2 = biological target: T5, M2 (Homo sapiens, UniProt P08172); settings: 100 μM
T5 construct: purchased Eurofins CEREP

ETB = biological target: T6, ETB (Homo sapiens, UniProt P24530); settings: 100 μM
T6 construct: purchased Eurofins CEREP

AT2 = biological target: T7, AT2 (Homo sapiens, UniProt P50052); settings: 100 μM
T7 construct: purchased Eurofins CEREP

CCK2 (CCKB) = biological target: T8, CCK2 (CCKB) (Homo sapiens, UniProt P32239); settings: 100 μM
T8 construct: purchased Eurofins CEREP

5-HT6 = biological target: T9, 5-HT6 (Homo sapiens, UniProt P50406); settings: 100 μM
T9 construct: purchased Eurofins CEREP
T9 sequence (P50406 whole entry): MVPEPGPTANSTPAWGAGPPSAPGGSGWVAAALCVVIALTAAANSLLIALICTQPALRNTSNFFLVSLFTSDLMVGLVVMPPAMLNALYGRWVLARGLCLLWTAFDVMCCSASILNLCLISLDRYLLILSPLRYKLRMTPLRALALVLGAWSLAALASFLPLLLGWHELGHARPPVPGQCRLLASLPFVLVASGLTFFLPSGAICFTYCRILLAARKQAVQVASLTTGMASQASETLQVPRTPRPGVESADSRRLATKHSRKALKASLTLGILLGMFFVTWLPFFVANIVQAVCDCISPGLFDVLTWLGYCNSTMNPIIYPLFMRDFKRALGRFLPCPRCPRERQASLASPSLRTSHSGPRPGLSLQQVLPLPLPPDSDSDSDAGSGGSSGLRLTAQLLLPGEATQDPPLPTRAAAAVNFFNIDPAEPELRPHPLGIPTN

A2A = biological target: T10, A2A (Homo sapiens, UniProt P29274); settings: 100 μM
T10 construct: purchased Eurofins CEREP

GAL2 = biological target: T11, GAL2 (Homo sapiens, UniProt O43603); settings: 100 μM
T11 construct: purchased Eurofins CEREP

AT1 = biological target: T12, AT1 (Homo sapiens, UniProt P30556); settings: 100 μM
T12 construct: purchased Eurofins CEREP

NOP (ORL1) = biological target: T13, NOP (ORL1) (Homo sapiens, UniProt P41146); settings: 100 μM
T13 construct: purchased Eurofins CEREP
T13 sequence (P41146 whole entry): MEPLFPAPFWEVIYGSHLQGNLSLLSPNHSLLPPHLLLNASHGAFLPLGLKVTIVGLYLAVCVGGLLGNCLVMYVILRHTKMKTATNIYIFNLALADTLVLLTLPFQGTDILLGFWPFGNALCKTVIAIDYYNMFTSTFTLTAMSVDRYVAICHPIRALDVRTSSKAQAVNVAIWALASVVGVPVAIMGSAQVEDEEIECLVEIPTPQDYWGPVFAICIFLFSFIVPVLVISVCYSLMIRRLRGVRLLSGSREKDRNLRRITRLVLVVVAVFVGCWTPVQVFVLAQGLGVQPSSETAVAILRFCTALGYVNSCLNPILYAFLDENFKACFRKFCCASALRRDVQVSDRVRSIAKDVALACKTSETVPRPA

[1] = biological target: T14, norepinephrine transporter (Homo sapiens, UniProt P23975); settings: 100 μM
T14 construct: purchased Eurofins CEREP

IP (PGI2) = biological target: T15, IP (PGI2) (Homo sapiens, UniProt P43119); settings: 100 μM
T15 construct: purchased Eurofins CEREP

PDGF = settings: 100 μM
D1 = biological target: T16, D1 (Homo sapiens, UniProt P21728); settings: 100 μM
T16 construct: purchased Eurofins CEREP

CCR1 = biological target: T17, CCR1 (Homo sapiens, UniProt P32246); settings: 100 μM
T17 construct: purchased Eurofins CEREP
T17 sequence (P32246 whole entry): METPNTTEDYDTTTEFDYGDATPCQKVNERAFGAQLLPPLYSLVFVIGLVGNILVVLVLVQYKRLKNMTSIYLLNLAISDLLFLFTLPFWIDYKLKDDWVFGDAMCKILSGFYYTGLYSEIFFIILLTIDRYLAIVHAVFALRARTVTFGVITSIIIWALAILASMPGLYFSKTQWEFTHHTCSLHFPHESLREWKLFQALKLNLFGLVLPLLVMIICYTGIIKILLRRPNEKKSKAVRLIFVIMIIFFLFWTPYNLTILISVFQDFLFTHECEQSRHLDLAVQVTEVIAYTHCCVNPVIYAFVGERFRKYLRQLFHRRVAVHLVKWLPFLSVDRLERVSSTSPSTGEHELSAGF

Y1 = biological target: T18, Y1 (Homo sapiens, UniProt P25929); settings: 100 μM
T18 construct: purchased Eurofins CEREP

NTS1 (NT1) = biological target: T19, NTS1 (NT1) (Homo sapiens, UniProt P30989); settings: 100 μM
T19 construct: purchased Eurofins CEREP
T19 sequence (P30989 whole entry): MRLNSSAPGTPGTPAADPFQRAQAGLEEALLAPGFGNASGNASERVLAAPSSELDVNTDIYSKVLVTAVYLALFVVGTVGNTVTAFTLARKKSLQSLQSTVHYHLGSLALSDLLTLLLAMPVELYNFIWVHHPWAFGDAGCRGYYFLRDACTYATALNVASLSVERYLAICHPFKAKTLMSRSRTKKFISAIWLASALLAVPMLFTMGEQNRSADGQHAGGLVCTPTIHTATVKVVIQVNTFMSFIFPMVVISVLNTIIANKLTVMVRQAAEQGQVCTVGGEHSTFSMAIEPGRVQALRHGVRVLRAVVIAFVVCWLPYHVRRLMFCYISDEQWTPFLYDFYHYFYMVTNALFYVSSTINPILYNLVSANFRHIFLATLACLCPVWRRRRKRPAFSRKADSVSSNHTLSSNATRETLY

PPARγ = biological target: T20, PPARγ (Homo sapiens, UniProt P37231); settings: 100 μM
T20 construct: purchased Eurofins CEREP

V1a = biological target: T21, V1a (Homo sapiens, UniProt P37288); settings: 100 μM
T21 construct: purchased Eurofins CEREP

TNF-α = settings: 100 μM
H1 = biological target: T22, H1 (Homo sapiens, UniProt P35367); settings: 100 μM
T22 construct: purchased Eurofins CEREP
T22 sequence (P35367 whole entry): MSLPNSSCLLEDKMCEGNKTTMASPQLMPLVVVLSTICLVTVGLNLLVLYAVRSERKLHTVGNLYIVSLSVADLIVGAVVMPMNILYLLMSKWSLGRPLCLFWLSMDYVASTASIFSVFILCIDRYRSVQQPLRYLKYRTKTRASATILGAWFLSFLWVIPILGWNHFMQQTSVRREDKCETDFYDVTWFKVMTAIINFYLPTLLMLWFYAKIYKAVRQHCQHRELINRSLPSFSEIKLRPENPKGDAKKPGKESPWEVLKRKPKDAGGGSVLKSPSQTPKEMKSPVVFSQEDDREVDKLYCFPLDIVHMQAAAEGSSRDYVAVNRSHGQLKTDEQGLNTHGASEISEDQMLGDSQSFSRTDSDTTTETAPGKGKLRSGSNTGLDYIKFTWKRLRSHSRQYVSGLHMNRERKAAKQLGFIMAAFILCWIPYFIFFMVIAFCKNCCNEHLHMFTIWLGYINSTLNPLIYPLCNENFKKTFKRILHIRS

sst (non-selective) = settings: 100 μM
β2 = biological target: T23, β2 (Homo sapiens, UniProt P07550); settings: 100 μM
T23 construct: purchased Eurofins CEREP

Y2 = biological target: T24, Y2 (Homo sapiens, UniProt P49146); settings: 100 μM
T24 construct: purchased Eurofins CEREP

H2 = biological target: T25, H2 (Homo sapiens, UniProt P25021); settings: 100 μM
T25 construct: purchased Eurofins CEREP

VPAC1 (VIP1) = biological target: T26, VPAC1 (VIP1) (Homo sapiens, UniProt P32241); settings: 100 μM
T26 construct: purchased Eurofins CEREP
T26 sequence (P32241 31-457): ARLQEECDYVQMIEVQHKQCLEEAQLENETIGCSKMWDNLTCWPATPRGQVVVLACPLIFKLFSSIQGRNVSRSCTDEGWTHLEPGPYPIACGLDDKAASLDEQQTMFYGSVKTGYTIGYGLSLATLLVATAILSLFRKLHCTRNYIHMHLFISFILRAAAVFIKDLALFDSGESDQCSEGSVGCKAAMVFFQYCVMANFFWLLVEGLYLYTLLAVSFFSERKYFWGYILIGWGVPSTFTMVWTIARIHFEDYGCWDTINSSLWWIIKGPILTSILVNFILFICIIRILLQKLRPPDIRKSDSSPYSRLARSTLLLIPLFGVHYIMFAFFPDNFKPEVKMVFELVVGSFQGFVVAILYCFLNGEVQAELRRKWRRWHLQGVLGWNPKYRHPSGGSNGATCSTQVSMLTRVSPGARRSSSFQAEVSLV

BZD (peripheral) = biological target: T27, BZD (peripheral) (Rattus norvegicus, UniProt P16257); settings: 100 μM
T27 construct: purchased Eurofins CEREP

5-HT1B = biological target: T28, 5-HT1B (Rattus norvegicus, UniProt P28564); settings: 100 μM
T28 construct: purchased Eurofins CEREP

NK3 = biological target: T29, NK3 (Homo sapiens, UniProt P29371); settings: 100 μM
T29 construct: purchased Eurofins CEREP

5-HT3 = biological target: T30, 5-HT3 (Homo sapiens, UniProt P46098); settings: 100 μM
T30 construct: purchased Eurofins CEREP
T30 sequence (P46098 24-478): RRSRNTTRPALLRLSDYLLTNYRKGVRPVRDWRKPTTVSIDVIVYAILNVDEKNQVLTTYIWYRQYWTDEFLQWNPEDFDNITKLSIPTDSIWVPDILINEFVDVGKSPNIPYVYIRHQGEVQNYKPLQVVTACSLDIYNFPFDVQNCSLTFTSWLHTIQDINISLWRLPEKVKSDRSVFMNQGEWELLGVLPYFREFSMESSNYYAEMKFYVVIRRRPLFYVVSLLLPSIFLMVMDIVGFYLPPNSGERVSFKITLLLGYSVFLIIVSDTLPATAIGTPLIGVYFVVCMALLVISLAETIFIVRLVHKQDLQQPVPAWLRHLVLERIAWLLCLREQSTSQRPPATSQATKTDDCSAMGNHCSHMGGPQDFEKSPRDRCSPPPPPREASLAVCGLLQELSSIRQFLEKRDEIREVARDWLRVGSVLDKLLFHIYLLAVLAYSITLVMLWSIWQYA

μ (MOP) = biological target: T31, μ (MOP) (Homo sapiens, UniProt P35372); settings: 100 μM
T31 construct: purchased Eurofins CEREP

MT1 (ML1A) = biological target: T32, MT1 (ML1A) (Homo sapiens, UniProt P48039); settings: 100 μM
T32 construct: purchased Eurofins CEREP
T32 sequence (P48039 whole entry): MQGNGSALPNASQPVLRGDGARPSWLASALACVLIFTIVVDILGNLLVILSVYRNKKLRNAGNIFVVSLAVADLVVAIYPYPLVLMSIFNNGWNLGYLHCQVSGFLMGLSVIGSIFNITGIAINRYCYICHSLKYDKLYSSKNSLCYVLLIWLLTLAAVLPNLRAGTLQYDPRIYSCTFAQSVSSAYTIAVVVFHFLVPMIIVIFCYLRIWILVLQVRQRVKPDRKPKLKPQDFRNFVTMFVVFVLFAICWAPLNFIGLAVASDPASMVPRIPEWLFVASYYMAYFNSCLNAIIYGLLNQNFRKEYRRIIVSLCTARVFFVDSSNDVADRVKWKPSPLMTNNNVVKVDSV

D5 = biological target: T33, D5 (Homo sapiens, UniProt P21918); settings: 100 μM
T33 construct: purchased Eurofins CEREP
T33 sequence (P21918 whole entry): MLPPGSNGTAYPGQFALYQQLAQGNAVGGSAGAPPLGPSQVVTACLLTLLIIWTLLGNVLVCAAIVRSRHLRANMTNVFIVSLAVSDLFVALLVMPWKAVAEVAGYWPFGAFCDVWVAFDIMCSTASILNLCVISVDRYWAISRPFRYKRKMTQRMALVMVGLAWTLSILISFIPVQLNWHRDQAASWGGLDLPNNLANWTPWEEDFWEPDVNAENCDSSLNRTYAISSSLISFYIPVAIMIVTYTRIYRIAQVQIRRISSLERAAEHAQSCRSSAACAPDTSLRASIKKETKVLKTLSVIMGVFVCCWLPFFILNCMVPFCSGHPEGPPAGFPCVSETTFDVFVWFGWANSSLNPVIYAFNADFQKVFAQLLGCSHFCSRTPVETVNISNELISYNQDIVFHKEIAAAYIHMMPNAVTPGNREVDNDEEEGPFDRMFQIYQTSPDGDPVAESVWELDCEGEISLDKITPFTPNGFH

EP2 = biological target: T34, EP2 (Homo sapiens, UniProt P43116); settings: 100 μM
T34 construct: purchased Eurofins CEREP
T34 sequence (P43116 whole entry): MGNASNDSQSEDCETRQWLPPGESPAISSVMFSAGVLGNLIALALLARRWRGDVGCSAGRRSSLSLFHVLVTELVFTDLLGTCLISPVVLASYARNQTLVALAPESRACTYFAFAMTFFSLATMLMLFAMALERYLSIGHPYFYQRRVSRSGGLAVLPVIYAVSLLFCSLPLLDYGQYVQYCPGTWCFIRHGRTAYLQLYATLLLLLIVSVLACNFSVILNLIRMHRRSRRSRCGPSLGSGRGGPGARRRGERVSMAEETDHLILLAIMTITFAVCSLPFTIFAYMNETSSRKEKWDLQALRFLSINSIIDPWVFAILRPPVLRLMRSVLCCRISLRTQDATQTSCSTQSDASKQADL

CGRP = biological target: T35, CGRP (Homo sapiens, UniProt O60894+Q16602); settings: 100 μM
T35 construct: purchased Eurofins CEREP

Sigma 1 = biological target: T36, Sigma 1 (Homo sapiens, UniProt Q99720)
T36 construct: purchased Eurofins CEREP
T36 sequence (Q99720 whole entry): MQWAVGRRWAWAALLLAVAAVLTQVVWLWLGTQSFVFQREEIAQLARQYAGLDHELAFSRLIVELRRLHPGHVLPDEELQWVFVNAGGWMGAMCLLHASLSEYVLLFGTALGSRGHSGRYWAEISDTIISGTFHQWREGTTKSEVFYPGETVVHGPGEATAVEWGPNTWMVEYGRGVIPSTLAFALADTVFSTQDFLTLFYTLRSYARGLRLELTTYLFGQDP

T2 sequence (P32238 whole entry): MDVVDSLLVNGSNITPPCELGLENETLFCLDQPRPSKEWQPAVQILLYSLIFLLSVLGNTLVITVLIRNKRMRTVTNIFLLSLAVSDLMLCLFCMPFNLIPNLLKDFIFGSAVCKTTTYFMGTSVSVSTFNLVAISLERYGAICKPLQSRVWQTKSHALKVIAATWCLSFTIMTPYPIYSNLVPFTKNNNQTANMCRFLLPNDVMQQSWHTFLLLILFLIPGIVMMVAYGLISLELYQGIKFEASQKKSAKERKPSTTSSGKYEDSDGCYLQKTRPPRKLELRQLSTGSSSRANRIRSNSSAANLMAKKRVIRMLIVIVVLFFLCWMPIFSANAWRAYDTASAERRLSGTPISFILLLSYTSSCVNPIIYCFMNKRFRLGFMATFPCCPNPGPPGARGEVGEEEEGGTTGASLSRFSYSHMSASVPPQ

## CCC(CO)NCCOc1c(C)cccc1Cl (stereo not shown) [Compound 4, R,S-2-((2-(2-chloro-6-methylphenoxy)ethyl)amino)butan-1-ol]
NK1
  % of control specific binding: 82.1%
CCK1 (CCKA)
  % of control specific binding: 99.8%
CB1
  % of control specific binding: 126.0%
MC4
  % of control specific binding: 92.0%
M2
  % of control specific binding: 58.4%
ETB
  % of control specific binding: 134.4%
AT2
  % of control specific binding: 108.2%
CCK2 (CCKB)
  % of control specific binding: 107.4%
5-HT6
  % of control specific binding: 101.6%
A2A
  % of control specific binding: 71.7%
GAL2
  % of control specific binding: 111.9%
AT1
  % of control specific binding: 131.2%
NOP (ORL1)
  % of control specific binding: 95.5%
[1]
  % of control specific binding: 55.0%
IP (PGI2)
  % of control specific binding: 97.2%
PDGF
  % of control specific binding: 127.9%
D1
  % of control specific binding: 58.6%
CCR1
  % of control specific binding: 100.7%
Y1
  % of control specific binding: 122.3%
NTS1 (NT1)
  % of control specific binding: 128.1%
PPARγ
  % of control specific binding: 92.3%
V1a
  % of control specific binding: 99.8%
TNF-α
  % of control specific binding: 96.5%
H1
  % of control specific binding: 58.9%
Sst (non-selective)
  % of control specific binding: 75.5%
β2
  % of control specific binding: 85.1%
Y2
  % of control specific binding: 126.5%
H2
  % of control specific binding: 90.3%
VPAC1 (VIP1)
  % of control specific binding: 117.9%
BZD (peripheral)
  % of control specific binding: 75.1%
5-HT1B
  % of control specific binding: 79.7%
NK3
  % of control specific binding: 91.8%
5-HT3
  % of control specific binding: 76.2%
μ (MOP)
  % of control specific binding: 50.1%
MT1 (ML1A)
  % of control specific binding: 55.1%
D5
  % of control specific binding: 54.4%
EP2
  % of control specific binding: 75.4%
CGRP
  % of control specific binding: 119.0%

## CCC(CO)NCCOc1c(C)cccc1Cl (stereo not shown) [KM-408, R,S-2-((2-(2-chloro-6-methylphenoxy)ethyl)amino)butan-1-ol hydrochloride]
Sigma 1; read-out: % inhibition of specific control binding
  inhibition at 10 µM: 95%
Sigma 1; read-out: % of control specific binding
  remaining activity at 10 µM: 95%
